Reference: the Kinase Knowledgebase extract (Sharma et al. 2016)

target: PIK3CA (human) (UniProt P42336); test: Assessment of PIK3CA Kinase Activity
Sequence (P42336 whole entry, looked up): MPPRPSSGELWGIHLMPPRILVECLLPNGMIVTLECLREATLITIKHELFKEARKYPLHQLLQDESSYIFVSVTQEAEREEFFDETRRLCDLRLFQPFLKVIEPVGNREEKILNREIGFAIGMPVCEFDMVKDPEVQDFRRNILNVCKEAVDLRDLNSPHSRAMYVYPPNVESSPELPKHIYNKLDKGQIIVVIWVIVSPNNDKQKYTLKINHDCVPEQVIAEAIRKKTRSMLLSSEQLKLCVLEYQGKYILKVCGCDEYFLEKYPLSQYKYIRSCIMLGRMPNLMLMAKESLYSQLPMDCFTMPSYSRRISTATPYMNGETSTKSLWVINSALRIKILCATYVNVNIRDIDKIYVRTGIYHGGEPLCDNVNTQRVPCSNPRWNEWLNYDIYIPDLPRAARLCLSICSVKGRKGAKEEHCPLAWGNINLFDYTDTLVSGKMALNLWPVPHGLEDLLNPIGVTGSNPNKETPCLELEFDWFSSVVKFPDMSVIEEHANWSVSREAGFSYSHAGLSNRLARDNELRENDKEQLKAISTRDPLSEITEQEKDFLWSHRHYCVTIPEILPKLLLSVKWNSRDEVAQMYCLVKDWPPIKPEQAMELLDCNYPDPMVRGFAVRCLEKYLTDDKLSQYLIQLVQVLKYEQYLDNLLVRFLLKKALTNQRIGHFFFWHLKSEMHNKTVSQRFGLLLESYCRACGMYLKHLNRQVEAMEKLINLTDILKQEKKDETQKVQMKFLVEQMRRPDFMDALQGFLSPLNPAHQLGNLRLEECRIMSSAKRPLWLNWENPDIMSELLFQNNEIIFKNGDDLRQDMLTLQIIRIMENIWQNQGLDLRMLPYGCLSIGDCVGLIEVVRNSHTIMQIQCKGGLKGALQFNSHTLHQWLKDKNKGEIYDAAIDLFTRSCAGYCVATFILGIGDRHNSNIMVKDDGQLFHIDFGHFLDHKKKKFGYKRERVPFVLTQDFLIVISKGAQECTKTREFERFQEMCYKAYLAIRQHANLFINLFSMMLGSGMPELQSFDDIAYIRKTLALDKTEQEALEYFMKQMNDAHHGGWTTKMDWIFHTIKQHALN

Structure (SMILES)	IC50
CC(=O)Nc1nc2ccc(-c3cnc(N)cn3)cc2s1	< 100 nM
CC(=O)Nc1nc2ccc(-c3ccc4[nH]cc(C(N)=O)c4c3)cc2s1	100 to 1000 nM
CC(=O)Nc1nc2ccc(-c3cnc(Cl)c(NS(=O)(=O)c4ccccc4)c3)nc2s1	< 100 nM
CC(=O)Nc1nc2ccc(-c3ccc4[nH]ccc4c3)nc2s1	100 to 1000 nM
CC(=O)Nc1nc2ccc(-c3ccncc3)nc2s1	100 to 1000 nM
CC(=O)Nc1nc2ccc(-c3cnc4cc[nH]c4c3)nc2s1	< 100 nM
CC(=O)Nc1nc2cnc(-c3ccc(N)nc3)nc2s1	100 to 1000 nM
CC(=O)Nc1nc2cnc(-c3cnc(Cl)c(N)c3)nc2s1	100 to 1000 nM
CCS(=O)(=O)Nc1cc(-c2ccc3nc(NC(C)=O)sc3n2)cnc1Cl	< 100 nM
CNC(=O)c1ccc(-c2ccc3nc(NC(C)=O)sc3n2)cn1	< 100 nM
CC(=O)Nc1nc2ccc(-c3ccc4c(c3)CC(=O)N4)nc2s1	< 100 nM
CONC(=O)c1ccc(-c2ccc3nc(NC(C)=O)sc3n2)cc1	< 100 nM
CS(=O)(=O)Nc1cc(-c2ccc3nc(NC(=O)C4CC4)sc3n2)cnc1Cl	< 100 nM
CC(=O)Nc1ccc(-c2ccc3nc(NC(C)=O)sc3n2)cc1	100 to 1000 nM
CC(=O)Nc1nc2ccc(-c3ccc4[nH]cc(C=O)c4c3)cc2s1	< 100 nM
CC(=O)Nc1nc2ccc(-c3cnc(Cl)c(NS(C)(=O)=O)c3)cc2s1	< 100 nM

Structure (SMILES)	IC50
CC(=O)Nc1nc2ccc(-c3ccc4[nH]ncc4c3)nc2s1	< 100 nM
CC(=O)Nc1ccc(-c2ccc3nc(NC(C)=O)sc3n2)cn1	100 to 1000 nM
CC(=O)Nc1nc2ccc(-c3ccc(C#N)nc3)nc2s1	100 to 1000 nM
CC(=O)Nc1nc2cnc(-c3cnc(Cl)c(NS(C)(=O)=O)c3)nc2s1	< 100 nM
CC(=O)Nc1nc2ccc(-c3cnc4[nH]ccc4c3)nc2s1	< 100 nM
CC(=O)Nc1nc2ccc(-c3cnc(Cl)c(NS(C)(=O)=O)c3)nc2s1	< 100 nM
CC(=O)Nc1nc2ccc(-c3ccc4[nH]ccc4c3)cc2s1	100 to 1000 nM
CONC(=O)c1cccc(-c2ccc3nc(NC(C)=O)sc3n2)c1	< 100 nM
CC(=O)Nc1nc2ccc(-c3cnc(Cl)c(NS(=O)(=O)C4CC4)c3)nc2s1	100 to 1000 nM
CC(=O)Nc1nc2ccc(-c3ccc(-c4nnc[nH]4)cc3)nc2s1	< 100 nM
CNC(=O)c1cccc(-c2ccc3nc(NC(C)=O)sc3c2)c1	100 to 1000 nM
CC(=O)Nc1nc2cnc(-c3cnc(N)c(C(F)(F)F)c3)nc2s1	< 100 nM
CC(=O)Nc1nc2ccc(-c3ccccc3N)nc2s1	100 to 1000 nM
CC(=O)Nc1nc2ccc(-c3ccc4nccn4c3)nc2s1	< 100 nM
CC(=O)Nc1nc2ccc(-c3ccc(N)cc3)cc2s1	100 to 1000 nM
CNC(=O)c1ccc(-c2ccc3nc(NC(C)=O)sc3n2)cc1	< 100 nM
